Our source for the IC50 values is ChEMBL document CHEMBL1157480, “Petrosamine, a potent anticholinesterase pyridoacridine alkaloid from a Thai marine sponge Petrosia n. sp” (Bioorg Med Chem, 2008).

In general, IC50 refers to the concentration needed to halve the response being measured. A high value points to a need for much substance.

The test addresses Acetylcholinesterase (Torpedo californica, UniProt P04058). Nature of the test: Inhibition of Torpedo californica AchE activity by Ellman's assay. Details: species or system Tetronarce californica.

Acetylcholinesterase, sequence (P04058 whole entry): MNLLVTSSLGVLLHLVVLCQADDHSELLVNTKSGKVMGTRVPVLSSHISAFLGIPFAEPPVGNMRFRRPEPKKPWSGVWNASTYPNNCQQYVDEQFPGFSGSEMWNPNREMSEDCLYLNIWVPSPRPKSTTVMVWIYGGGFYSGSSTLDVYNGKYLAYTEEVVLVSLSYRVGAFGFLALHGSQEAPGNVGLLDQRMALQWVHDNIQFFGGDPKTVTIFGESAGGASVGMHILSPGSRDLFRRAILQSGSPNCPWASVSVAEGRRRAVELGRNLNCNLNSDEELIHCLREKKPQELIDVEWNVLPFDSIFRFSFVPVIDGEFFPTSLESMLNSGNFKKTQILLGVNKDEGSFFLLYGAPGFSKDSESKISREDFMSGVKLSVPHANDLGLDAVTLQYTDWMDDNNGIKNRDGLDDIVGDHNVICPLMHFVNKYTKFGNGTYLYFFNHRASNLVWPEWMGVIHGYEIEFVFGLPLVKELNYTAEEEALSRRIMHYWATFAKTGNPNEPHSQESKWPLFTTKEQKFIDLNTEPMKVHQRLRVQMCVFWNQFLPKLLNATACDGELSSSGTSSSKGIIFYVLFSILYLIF

Take `Cn1cc2c(cc1=O)-c1nc3cc(Br)ccc3c3ccnc(c13)C2=O`: the IC50 was more than 300000 nM.

On to `Cn1ccc2c3nc4cc(Br)ccc4c4c3c(c(=O)c-2c1)[N+](C)(C)CC4=O` [PETROSAMINE], for which the IC50 was 91 nM.
